US11590164B2, “Topical antimicrobial formulations containing monovalent copper ions and systems for generating monovalent copper ions” (priority 2016, dated 2023)

How the values were obtained:
[1] = system: Escherichia coli strain MG1655; assay: Disc diffusion antibiotic sensitivity test; assay type: cell-based; settings: for Estimate of the sterile area beyond the disk: aerobic, 37° C., 24 h incubation, 6 mm disk
Protocol: 1. Introduction: • The antibacterial effect was measured by an agar disk diffusion method. Escherichia coli strain MG1655 was used as a model organism. Whatman's 6 mm disks were used. The incubation of Petri dishes (with disks) was done in aerobic conditions, at 37° C. After 24 h incubation, the radiuses of sterile zones on agar were measured.
2.1 Preparation of bacterial suspension • 100 μl of bacterial suspension (containing 10^4-10^5 bacterial cells per plate) was used for testing. Cells of E. coli MG1655 were grown overnight as a starter on LB (Luria broth) media at 37° C. with a shaker. After 12-18 hhours incubation, 100 μL suspension were added to 9.9 mL of fresh LB media. Bacterial cells designated for testing were grown in fresh LB at 37° C. with a shaker for 2-3 h to final OD (600 nm) 0.2-0.4. This cell suspension was diluted by a factor of 100 using 0.9% NaCl, and 100 μL of the diluted suspension was distributed on agar surface before adding a disk.
2.2 Preparation of Petri dishes • LB agar was prepared according to a standard procedure, autoclaved and stored afterwards up to 3 h at 55° C. The needed substances (like ascorbic acid) were added into agar before pouring into dishes. 15 ml agar was added to each 90 mm Petri dish. Dishes were dried for at least 1 h in a biosafety cabinet by sterile air flow.
2.3 Formulation application • To the preliminary dried dishes (a described in 2.2) a freshly prepared bacterial culture was added (as described in 2.1). Immediately after absorption of the suspension into the agar, a disk was placed at the center of the dish. In case where metallic copper was tested, it was placed first in the form of a small circular wire at the dish center and pressed into the agar, and covered by a disk afterwards. 10 μl of a Cu^2+ solution was placed on the disk.
2.4 Measurement of the sterile zone size • All dishes after 24 h incubation (as described in 2.1) were photographed and the images are analyzed. The absolute size of the sterile zones was estimated in comparison with the disk size (6 mm).
The results were presented as sterile area in mm^2 (FIG. 5 and Table 2) or as radiuses in mm (FIGS. 7-10) of the sterile zones on agar.

[2] = system: E. coli; assay: Kinetics of bactericidal effect (time-kill curve), syringes technique; assay type: cell-based, Escherichia coli
Protocol: (§1) Syringes technique: Bacteria cells were incubated at room temperature under anaerobic conditions in LB Bruce growth substance syringes. To ensure anaerobic conditions, Argon gas (UHP) was bubbled through a sterile filter into a syringe filled with a growth substance. Cu^1+ was formed in situ, the process was started with de-aerating the aqueous solutions containing a mixture of CuSO4 as the source for Cu^2+ ions, metallic copper and Acetonitrile as a stabilizing ligand, prior to microorganisms insertion, according to the following reaction:
(§2) Reference bacteria were incubated under the same condition in a growth substance containing: Metallic copper (4×2×0.1 cm), Acetonitrile, CuSO4 or AgNO3.
(§3) Bacteria count was measured at time intervals using a series of dilutions, and colonies count on LB Agar was incubated at 37° C.
Because of the chemical similarity of copper and silver as well as their clinical use as antibacterial agents, their antibacterial effect over time was compared. The survival of test bacteria in each syringe was sampled in time intervals of 1, 20, 40 and 85 hours from inoculation. Time-kill curve was constructed by plotting the viable cell count of bacteria (Δ log 10 cfu/ml) over time (FIG. 1).

[3] = system: E. coli MG 1655; assay: Petri dish technique, LB agar with ascorbic acid and CuSO4 covered by oil; assay type: cell-based, Escherichia coli; settings: for Vitality of E. coli MG 1655: 24 h
Protocol: (§4) As control groups, bacteria were incubated under the same conditions without ascorbic acid, or without CuSO4. In this series of experiments ascorbic acid acted as the reducing agent according to the following reaction: 2Cu^2++ascorbic acid→2Cu^++dehydro ascorbic acid (2) The viability of bacteria was detected by the presence or absence of colonies.
The experiment was repeated using a different reducing agent (ascorbic acid instead of metal copper with acetonitrile) and different technique of growing bacteria on Petri dishes with LB agar. The ascorbic acid embedded in the agar reduces copper as was shown in Equation 2.

[4] = system: E. coli; assay: Syringes technique, anaerobic incubation of E. coli with copper ions (vitality / MIC); assay type: cell-based, Escherichia coli
Protocol: as §1
One must notice that each Cu^2+ results in two Cu^1+ ions.
as §2, §3
The vitality of Escherichia coli, Staphylococcus aureus (bacteria) and Saccharomyces cerevisiae (yeast) was tested in anaerobic conditions using syringe technique and Petri dish technique.
The MIC of Cu^1+ and Cu^2+ was measured by using four syringes with decreasing concentration of the copper ions from 8 to 2 mM.
MIC of Cu^1+ found to be around 4 mM where the MIC of Cu^2+ was between 6 mM and 8 mM.

[5] = system: Saccharomyces cerevisiae; assay: Viable cell count over time, syringes technique; assay type: cell-based
[6] = system: S. aureus; assay: Petri dish technique, LB agar with ascorbic acid; assay type: cell-based, Staphylococcus aureus; settings: 24 h
Protocol: as §4, with “Petri dish technique: Bacteria were incubated at 37° C. in Petri dish with LB Agar containing 20 mM ascorbic acid and 0.05-3.5 mM CuSO4 covered by oil, to prevent air oxygen penetration. As” for “As”
The MIC of Cu^1+ is measured by using Petri dishes with LB agar. The ascorbic acid embedded in the agar reduces copper as was shown in Equation 2.

[7] = system: Staphylococcus aureus; assay: Growth kinetics in anaerobic conditions, syringe technique; assay type: cell-based
Protocol: as §1, §2, §3
When comparing with FIG. 2 it seems that the difference between the effect of Cu^1+ and Cu^2+ is more pronounced in gram (+) bacteria than in gram(−).

[8] = 4 mM ion, 24 h incubation, 0.5% (v/v) acetonitrile

## [Ag+] [Ag^1+, reference compound]
[1]
  Estimate of the sterile area beyond the disk: 27.1 mm^2
[2]; after 85 hours
  viable cells: no viable cells were found

## O=C1O[C@H]([C@@H](O)CO)C(O)=C1O [Ascorbic acid, ascorbic acid, reference compound]
[3]; Ascorbic acid 20 mM, CuSO4 0 mM
  Vitality of E. coli MG 1655: ++ (a fully covered plate, estimated as 2×10^7 cfu/ml)

## O=S(=O)([O-])[O-].[Cu+2] [CuSO4]
[3]; Ascorbic acid 0 mM, CuSO4 3.0 mM
  Vitality of E. coli MG 1655: ++ (a fully covered plate, estimated as 2×10^7 cfu/ml)
[3]; Ascorbic acid 0 mM, CuSO4 4.0 mM
  Vitality of E. coli MG 1655: −
[3]; Ascorbic acid 20 mM, CuSO4 0.01 mM
  Vitality of E. coli MG 1655: ++ (a fully covered plate, estimated as 2×10^7 cfu/ml)
[3]; Ascorbic acid 20 mM, CuSO4 0.05 mM
  Vitality of E. coli MG 1655: −

## [Cu+] [Cu^1+]
[4]; 2 mM ion, 24 h incubation, 0.5% (v/v) acetonitrile
  presence or absence of E. coli colonies: ++ (a fully covered plate, estimated as 2×10^7 cfu/ml)
[4]; [8]
  number of colonies on the plate: 107 colonies
  presence or absence of E. coli colonies: ++ (a fully covered plate, estimated as 2×10^7 cfu/ml)
[4]; 6 mM ion, 24 h incubation, 0.5% (v/v) acetonitrile
  presence or absence of E. coli colonies: −
[4]; 6 mM ion, 24 h incubation, 0.5% (v/v) acetonitrile, listed as Cu^+2
  presence or absence of E. coli colonies: + (partially covered plate but still uncountable, estimated as 1×10^4 cfu/ml)
[4]; 8 mM ion, 24 h incubation, 0.5% (v/v) acetonitrile
  presence or absence of E. coli colonies: −
[4]; 24 h incubation, 0.5% (v/v) acetonitrile, syringes
  MIC: around 4 mM
[5]
  susceptibility of the yeast compared with the bacteria studied: more susceptible
[3]; 24 h after incubation
  bactericidal effect of reduced copper ions relative to Cu^2+: eight times higher
[1]
  Estimate of the sterile area beyond the disk: 359.3 mm^2
[1]; listed as Cu^2+
  Estimate of the sterile area beyond the disk: 25.9 mm^2
[1]; listed as Cu^+2
  Estimate of the sterile area beyond the disk: 25.9 mm^2
[1]; disk diffusion method
  improvement in the biocidal effect compared with Ag^1+ and Cu^2+: more than 10 times
[6]; 0.05 mM with ascorbic acid 20 mM
  S. aureus vitality: ++ (a fully covered plate, estimated as 2×10^7 cfu/ml)
[6]; 0.1 mM with ascorbic acid 20 mM
  S. aureus vitality, number of colonies: 45
[6]; 0.3 mM with ascorbic acid 20 mM
  S. aureus vitality: −
[2]; 8 mM, 1 h incubation
  antibacterial potency compared with 8 mM and 16 mM Ag^+: more potent antibacterial agent
[2]; 20 hours after inoculation
  viable bacteria cells: no viable bacteria cell was found at all
[2]; after 1 h of incubation, anaerobic
  reduction of the initial bacteria inoculums: 7 log cfu/ml
[2]; after 85 hours
  live bacteria remaining in the syringe: 1 log cfu/ml
[7]
  bacteriostatic effect: very little bacteriostatic effect
  incubation time to depletion of bacterial count: ≤ 1 h

## CC#N [acetonitrile]
[4]; preliminary tests, equals 0.5% V/V
  minimal effective concentration as stabilizing ligand: 0.1 M

## copper(II) gluconate [copper (II) gluconate]
[1]; in emulsifying base ointment with ascorbyl palmitate and 2% copper powder
  minimal recommended concentration of copper (II) gluconate: 1.25 % w/w
